Laboratory results: patent US20260240879A1, “TOPICAL PALA THERAPY FOR CANCER” (priority 2023, published 2026)
“Also recorded” adds a separate entry of the source.

Key:
[1] = system: cytokines and chemokines in treated skin; experiment: Cytokine/chemokine profile of treated skin lysates (U-PLEX); details: for expression of inflammatory cytokine/chemokine panel in treated skin (in words): daily topical 2% PALA, 5% IMQ or 5% 5-FU, 7 days, vs vehicle; for IL-17C, Mean (SEM) / IL-17A, Mean (SEM) / GM-CSF, Mean (SEM) / IL-6, Mean (SEM) / KC, Mean (SEM) / RANTES, Mean (SEM): treated skin lysate, day 7, 2% PALA, 5% IMQ, 5% 5-FU, n = 5/group; for IL-17C, Mean (SEM): vehicle 0.5 (0.03); for IL-17A, Mean (SEM): vehicle 0.6 (0.1); for GM-CSF, Mean (SEM): vehicle 0.8 (0.1); for IL-6, Mean (SEM): vehicle 25.4 (3.2); for KC, Mean (SEM): vehicle 26.3 (6.4); for RANTES, Mean (SEM): vehicle 43.7 (3.2)
Description: The topical formulations of 2% PALA/50% acetone/10% glycerol, 5% imiquimod (IMQ), 5% 5-FU (5-FU), vehicle (50% acetone/10% glycerol) control, and Aquaphor were applied (~0.05 g/mouse) daily to the dorsal skin of SKH1-Elite female mice (8 weeks of age; n=5/group) for 7 days. […] Mice were monitored daily for weight change, skin appearance, and signs of distress.
Skin protein lysates were made by homogenizing frozen tissue with a pestle and scissors in RIPA buffer (50 mM Tris, pH8, 150 mM NaCl, 0.5% sodium deoxycholate, 1% NP-40, 0.1% sodium dodecyl sulfate, lx Pierce protease inhibitor cocktail (A32965, ThermoFisher)). Cytokines and chemokines were quantified from 25 μg of lysate using a custom 10-plex U-PLEX panel (K15069L-2; Meso Scale Discovery) that included: GM-CSF, KC/CXCL1, IFNα, IFNβ, IFNγ, IL-10, IL-6, IL-12p70, IL-17A, IL-17C, IL-17F, IP-10/CXCL10, MCP-1/CCL2, RANTES/CCL5, and TNFα. The MESO SECTOR S 600 plate reader (ICOAA-0; Meso Scale Discovery) was used to collect the U-Plex data and data was analyzed using MSD Discovery Workbench 4.0 software.

[2] = Skin irritation testing, daily topical application for 7 days; details: for skin histology on day 7 / spleen weight on day 7 / skin irritation apparent: daily topical 2% PALA, 5% IMQ or 5% 5-FU; for skin irritation apparent / weight change: naive mice; for weight change: daily topical 5% IMQ or 5% 5-FU, in contrast to vehicle and 2% PALA
Description: The topical formulations of 2% PALA/50% acetone/10% glycerol, 5% imiquimod (IMQ), 5% 5-FU (5-FU), vehicle (50% acetone/10% glycerol) control, and Aquaphor were applied (~0.05 g/mouse) daily to the dorsal skin of SKH1-Elite female mice (8 weeks of age; n=5/group) for 7 days. […] Mice were monitored daily for weight change, skin appearance, and signs of distress. […] At harvest, spleen weights and colon lengths were measured.

[3] = system: UVB-induced NMSC (AK lesions and SCC tumors); experiment: UVB-induced NMSC mouse model: tumor number, area, growth phenotype and grade; details: 2% PALA or 5% IMQ, daily, 4 weeks
[4] = Toxicity markers in UVB-tumor-bearing mice under topical treatment (weight, SAA, colon length, fecal LCN2); details: 5% (w/w) 5-fluorouracil, daily topical
Description: Serum amyloid A levels were measured in plasma samples using the Mouse SAA ELISA kit (E-90SAA, Immunology Consultants Laboratory, Inc.) according to manufacturer's instructions. Lipocalin-2 (LCN2) was quantified from pre-weighed stool samples homogenized in 0.5 mL PBS using the Mouse Lipocalin-2/NGAL DuoSet ELISA (DY1857) and DuoSet Ancillary Reagent Kit 2 (DY008, R&D Systems).

Row | IL-17C, Mean (SEM) [1] | IL-17A, Mean (SEM) [1] | GM-CSF, Mean (SEM) [1] | IL-6, Mean (SEM) [1] | KC, Mean (SEM) [1] | RANTES, Mean (SEM) [1] | SMILES | expression of inflammatory cytokine/chemokine panel in treated skin (in words) [1] | skin histology on day 7 [2] | spleen weight on day 7 [2] | skin irritation apparent [2] | weight change [2] | tumor levels of interleukin-1β [3] | early termination of animals at the request of veterinary staff [4]
1 | 1.0 (0.04) | 1.6 (0.1) | 2.5 (0.7) | 61.3 (10.0) | 28.6 (5.9) | 141.0 (36.1) | CC(C)Cn1cnc2c(N)nc3ccccc3c21 [IMQ, imiquimod] | upregulation of IL-17 family cytokines; also recorded: cutaneous levels of RANTES and GM-CSF were elevated | overt thickening of the epidermis | splenomegaly | 2 days | significant weight loss | elevated | 
2 | 1.4 (0.1) | 1.2 (0.4) | 2.6 (0.2) | 268.8 (104.8) | 114.5 (16.4) | 17.7 (5.0) | O=c1[nH]cc(F)c(=O)[nH]1 [Formulation 5-FU, fluorouracil] | increased expression of IL-6, IL-17C, KC, and GM-CSF | epithelial erosion | significant decreases in spleen weight | 5 days | significant weight loss |  | terminated after 2.5 weeks of treatment
